Literature values in patent US10136666B2, “Deep eutectic solvents and flavour generation” (NESTEC S.A., priority 2013, dated 2018).

Settings: from literature values

- amount that would dissolve in 60 g water: about 33 g
Compound: NCCC(=O)O [β-alanine]
